We go through 2 molecules from patent US6562859B1, “Ureido derivatives of poly-4-amino-2-carboxy-1-methyl pyrrole compounds for inhibition of inflammation” (The United States of America as represented by the …, priority 1997, dated 2003).

The target of assay [1] is T1, CXCR4 chemokine receptor (Homo sapiens, UniProt P61073).
T1 construct: Human monocytes, which express the CXCR4 chemokine receptor; endogenous in cells; host or cells: human monocytes
Put plainly: Competition with 44716.111 mAb binding to CXCR4 on human monocytes (FACS). Conditions: human monocytes pre-incubated 15 min at 4° C. with 125 nM SDF-1α or 200 μM NSC 651016. As for the experimental part:
Competition assays were performed with the 44716.111 mouse monoclonal antibody (mAb), which binds to the extracellular domain of the CXCR4 chemokine receptor. Human monocytes, which express the CXCR4 chemokine receptor, were pre-incubated with either 125 nM of SDF-1α or 200 μM NSC 651016 for 15 min at 4° C. Control monocyte cells were placed at 4° C. for 15 min. The cells were then incubated with the 44716.111 mAb for an additional 30 min. The presence of the 44716.111 mAb was detected by incubating the cells with FITC-conjugated anti-murine antibody and subjecting the cells to FACS Analysis.

The subject of assay [2] is Murine spleen cells. As to the kind of experiment: Chemotaxis of non-adherent murine spleen cells in vitro. It counts as cell-based. Conditions: 10 ng/ml RANTES alone; media alone = 1. The method, then: Murine spleen cells were “panned” on plastic to remove the adherent cells. The recovered cells were incubated for 30 minutes at 37° C. with one of the following: NSC 651015, NSC 651016, NSC 662162, and NSC 680651. […] In assays similarly performed using either the MIP-1α or the SDF-1α chemokine rather than RANTES, chemotactic inhibition was also observed in the presence of formula I compounds.

T1 sequence (P61073 whole entry): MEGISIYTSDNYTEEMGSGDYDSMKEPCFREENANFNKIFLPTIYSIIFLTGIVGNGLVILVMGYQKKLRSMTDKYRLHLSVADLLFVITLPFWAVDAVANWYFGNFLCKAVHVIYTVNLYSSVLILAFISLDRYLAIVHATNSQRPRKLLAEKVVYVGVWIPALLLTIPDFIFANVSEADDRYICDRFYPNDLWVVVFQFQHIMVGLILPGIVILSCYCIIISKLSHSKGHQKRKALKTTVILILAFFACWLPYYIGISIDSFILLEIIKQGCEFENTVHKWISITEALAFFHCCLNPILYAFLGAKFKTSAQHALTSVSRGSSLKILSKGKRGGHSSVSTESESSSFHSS

Consider SDF-1α, for which the “44716.111 antibody binding to the CXCR4 receptor” value in assay [1] is “decrease in 44716.111 antibody binding”.

B1: RANTES: β-chemokine used as chemoattractant stimulus (protein, UniProt P13501 24-91, looked up)
C-C motif chemokine 5: SPYSSDTTPCCFAYIARPLPRAHIKEYFYTSGKCSNPAVVFVTRKNRQVCANPEKKWVREYINSLEMS
For B1, in assay [2], the chemotactic index stood at 2.3.
